Measurements reported in patent publication US11919858B2, “Aminonapthoquinone compounds and pharmaceutical composition for blocking ubiquitination-proteasome system in diseases” (Calgent Biotechnology Co., Ltd., priority 2015, dated 2024).
Like-named read-outs stand apart in the source and are kept apart here.

Tests used:
[1] = tested on: HCT116 human colorectal adenocarcinoma
Protocol: MPT0L056 was used to evaluate for activity against the HCT116 human colorectal adenocarcinoma.
However, MPT0E028 was administered orally (p.o.) in 1.0% CMC and 0.5% Tween 80 and given dose at 25 mg/kg daily to end schedule.
Each animal was euthanized when the tumors reached the predetermined endpoint size of 1,000 mm^3. The time to endpoint (TTE) for each mouse was calculated by the following equation:
[formula] where TTE is expressed in days, endpoint volume is in mm^3, b is the intercept, and m is the slope of the line obtained by linear regression of a log-transformed tumor growth data set. The data set is comprised of the first observation that exceeded the study endpoint volume and the three consecutive observations that immediately preceded the attainment of the endpoint volume. The calculated TTE is usually less than the day on which an animal is euthanized for tumor size. […] An animal classified as having died from treatment-related (TR) causes or non-treatment-related metastasis (NTRm) causes was assigned a TTE value equal to the day of death. An animal classified as having died from non-treatment-related (NTR) causes was excluded from TTE calculations.
Treatment efficacy was determined from tumor growth delay (TGD), which is defined as the increase in the median TTE for a treatment group compared to the control group: TGD=T−C, expressed in days, or as a percentage of the median TTE of the control group:
[formula] where: • T=median TTE for a treatment group, • C=median TTE for control Group 1.
Treatment efficacy was also determined from the tumor volumes of animals remaining in the study on the last day, and from the number of regression responses. The MTV(n) is defined as the median tumor volume on D59 in the number of animals remaining, n, whose tumors have not attained the endpoint volume.
Treatment may cause a partial regression (PR) or a complete regression (CR) of the tumor in an animal. […] An animal with a CR at the termination of a study is additionally classified as a tumor-free survivor (TFS).
Animals were weighed daily for the first five days, then twice weekly until the completion of the study. The mice were examined frequently for overt signs of any adverse, drug-related side effects. Acceptable toxicity for the MTD of cancer drugs is defined as a group mean BW loss of 20% or less during the test, and not more than one TR death among ten animals. A death is classified as TR if there is evidence of treatment side effects from clinical signs and/or necropsy or from unknown causes during dosing period or within 10 days of the last dose. A death is classified as NTR if there is no evidence that the death was related to treatment side effects.
The logrank test was used to determine the statistical significance of the difference between the TTE values of two groups, except any NTR deaths. Statistical and graphical analyses were performed with Prism 3.03 (GraphPad) for Windows. The two-tailed statistical analyses were conducted at P=0.05. Kaplan-Meier plots show the percentage of animals remaining in the study versus time. The Kaplan-Meier plots use the same data set as the log rank test. The tumor growth curves show the group median tumor volume, on a log scale as a function of time.

[2] = tested on: Hep 3B; assay: Growth inhibition assay; type: cell-based; conditions: Homo sapiens, Hep3B; read-out: Hep3B GI50 (μM) Mean ± S.E.
Protocol: (§1) Cells were seeded in 96-well plastic plates and exposed to MPT0L056 for 48 hours. Cell viability was assessed using the 3-(4,5-dimethylthiazol-2-yl)-2,5-diphenyltetrazolium bromide assay. Growth inhibition was expressed as the percentage of surviving cells in drug-treated versus DMSO-treated control cells.
(§2) The compounds of the invention were subjected to growth inhibition assay.

[3] = tested on: HL-60; assay: Growth inhibition assay; type: cell-based; conditions: HL-60; for IC50: Homo sapiens, read-out: HL-60 IC50 (μM) Mean ± S.E.
Protocol: as §1, §2

[4] = tested on: HCT-116; assay: Growth inhibition assay; type: cell-based; conditions: Homo sapiens, HCT-116; read-out: HCT-116 GI50 (μM) Mean ± S.E.
Protocol: as §1, §2

[5] = tested on: MDA-MB-231; assay: Growth inhibition assay; type: cell-based; conditions: Homo sapiens, MDA-MB-231; read-out: MDA-MB-231 GI50 (μM) Mean ± S.E.
Protocol: as §1, §2

[6] = Group 1 vs 2: MPT0E028 25 mg/kg
[7] = Group 2: MPT0E028 25 mg/kg po qd to endpoint

Compound	GI50 [2]	IC50 [3]	GI50 [4]	GI50 [5]	further results
O=C(/C=C/c1ccc2c(c1)CCN2S(=O)(=O)c1ccccc1)NO [MPT0E028, reference compound]					Hazard Ratio [1, 6]: 3.677; Median survival [1, 6]: 40.5; Median survival Ratio [1, 6]: 0.5605; Hazard Ratio ([1]; Group 1 vs 7: 100/25 mg/kg): 1.43; Median survival ([1]; Group 1 vs 7: 100/25 mg/kg): 33.95; Median survival Ratio ([1]; Group 1 vs 7: 100/25 mg/kg): 0.6686; Hazard Ratio ([1]; Group 1 vs 8: 50/25 mg/kg): 3.433; Median survival ([1]; Group 1 vs 8: 50/25 mg/kg): 45.3; Median survival Ratio ([1]; Group 1 vs 8: 50/25 mg/kg): 0.5011; MTV (n) Day 59 [1, 7]: 454 mm^3; Median TTE [1, 7]: 40.5 days; T-C [1, 7]: 17.8 days; antitumor activity (logrank analysis) [1, 7]: produced significant antitumor activity; % TGD ([1]; Group 2: MPT0E028 25 mg/kg po qd to endpoint, 25 mg/kg): 78%; Logrank Significance ([1]; Group 2: MPT0E028 25 mg/kg po qd to endpoint, compared to Group 1): * (* = P < 0.05); Day of Max % BW Loss ([1]; mouse, in vivo, po, 25 mg/kg): 5 days; Max % BW Loss ([1]; mouse, in vivo, po, 25 mg/kg): −7.7%; No. of NTR ([1]; mouse, in vivo, po, 25 mg/kg): 0; No. of TR ([1]; mouse, in vivo, po, 25 mg/kg): 0
O=C(Nc1ccccn1)c1ccc(CNC2=C(Cl)C(=O)c3ccccc3C2=O)cc1 [MPT0L018, 4-(((3-chloro-1,4-dioxo-1,4-dihydronaphthalen-2-yl)amino)methyl)-N-(pyridin-2-yl)benzamide]	10 to 30 µM	10 to 30 µM	10 to 30 µM	10 to 30 µM	
O=C(Nc1cccnc1)c1ccc(CNC2=C(Cl)C(=O)c3ccccc3C2=O)cc1 [MPT0L055, 4-(((3-chloro-1,4-dioxo-1,4-dihydronaphthalen-2-yl)amino)methyl)-N-(pyridin-3-yl)benzamide]	10 to 30 µM	10 to 30 µM	10 to 30 µM	10 to 30 µM	
O=C(Nc1cnccn1)c1ccc(CNC2=C(Cl)C(=O)c3ccccc3C2=O)cc1 [MPT0L076, 4-(((3-chloro-1,4-dioxo-1,4-dihydronaphthalen-2-yl)amino)methyl)-N-(pyrazin-2-yl)benzamide]	8.77 ± 0.9 µM	7.27 ± 2.98 µM	5.52 ± 0.66 µM	9.19 ± 0.4 µM	
O=C(Nc1ccc(F)cc1)c1ccc(CNC2=C(Cl)C(=O)c3ccccc3C2=O)cc1 [MPT0L082]	10 to 30 µM	10 to 30 µM	10 to 30 µM	10 to 30 µM	
O=C(Nc1ccccc1)c1ccc(CNC2=C(Cl)C(=O)c3ccccc3C2=O)cc1 [MPT0L083, 4-(((3-chloro-1,4-dioxo-1,4-dihydronaphthalen-2-yl)amino)methyl)-N-phenylbenzamide]	10 to 30 µM	10 to 30 µM	10 to 30 µM	10 to 30 µM	
O=C(Nc1nccs1)c1ccc(CNC2=C(Cl)C(=O)c3ccccc3C2=O)cc1 [MPT0L085, 4-(((3-chloro-1,4-dioxo-1,4-dihydronaphthalen-2-yl)amino)methyl)-N-(thiazol-2-yl)benzamide]	10 to 30 µM	8.53 ± 0.55 µM	10 to 30 µM	10 to 30 µM	
O=C(Nc1nc2ccccc2[nH]1)c1ccc(CNC2=C(Cl)C(=O)c3ccccc3C2=O)cc1 [MPT0L086, N-(1H-benzo[d]imidazol-2-yl)-4-(((3-chloro-1,4-dioxo-1,4-dihydronaphthalen-2-yl)amino)methyl)benzamide]	10 to 30 µM	10 to 30 µM	10 to 30 µM	8.88 ± 1.04 µM	
O=C(Nc1ccc2[nH]cnc2c1)c1ccc(CNC2=C(Cl)C(=O)c3ccccc3C2=O)cc1 [MPT0L093, N-(1H-benzo[d]imidazol-5-yl)-4-((3-chloro-1,4-dioxo-1,4-dihydronaphthalen-2-ylamino)methyl)benzamide]	10 to 30 µM	10 to 30 µM	10 to 30 µM	10 to 30 µM	
Nc1ccn(C(=O)c2ccc(CNC3=C(Cl)C(=O)c4ccccc4C3=O)cc2)n1 [MPT0L094, 2-(4-(3-amino-1H-pyrazole-1-carbonyl)benzylamino)-3-chloronaphthalene-1,4-dione]	10 to 30 µM		10 to 30 µM	10 to 30 µM	HL-60 IC50 (μM) Mean ± S.E. [3]: 110~30 μM
O=C(Nc1ccc2[nH]ncc2c1)c1ccc(CNC2=C(Cl)C(=O)c3ccccc3C2=O)cc1 [MPT0L097, 4-((3-chloro-1,4-dioxo-1,4-dihydronaphthalen-2-ylamino)methyl)-N-(1H-indazol-5-yl)benzamide]	10 to 30 µM	10 to 30 µM	10 to 30 µM	10 to 30 µM	
Cc1cnc(NC(=O)c2ccc(CNC3=C(Cl)C(=O)c4ccccc4C3=O)cc2)s1 [MPT0L098, 4-((3-chloro-1,4-dioxo-1,4-dihydronaphthalen-2-ylamino)methyl)-N-(5-methylthiazol-2-yl)benzamide]	10 to 30 µM	7.06 ± 0.73 µM	10 to 30 µM	10 to 30 µM	
Cc1cc(NC(=O)c2ccc(CNC3=C(Cl)C(=O)c4ccccc4C3=O)cc2)n[nH]1 [MPT0L099, 4-((3-chloro-1,4-dioxo-1,4-dihydronaphthalen-2-ylamino)methyl)-N-(5-methyl-3H-pyrazol-3-yl)benzamide]	10 to 30 µM	10 to 30 µM	10 to 30 µM	10 to 30 µM	
Cc1cc(N)nn1C(=O)c1ccc(CNC2=C(Cl)C(=O)c3ccccc3C2=O)cc1 [MPT0L100, 2-(4-(3-amino-5-methyl-1H-pyrazole-1-carbonyl)benzylamino)-3-chloronaphthalene-1,4-dione]	10 to 30 µM	10 to 30 µM	10 to 30 µM	10 to 30 µM	
O=C(Nc1ccncc1[N+](=O)[O-])c1ccc(CNC2=C(Cl)C(=O)c3ccccc3C2=O)cc1 [MPT0L103, 4-((3-chloro-1,4-dioxo-1,4-dihydronaphthalen-2-ylamino)methyl)-N-(3-nitropyridin-4-yl)benzamide]	10 to 30 µM	5.42 ± 0.7 µM	6.12 ± 1.17 µM	10 to 30 µM	
O=C(Nc1ccc2ncccc2c1)c1ccc(CNC2=C(Cl)C(=O)c3ccccc3C2=O)cc1 [MPT0L108, 4-((3-chloro-1,4-dioxo-1,4-dihydronaphthalen-2-ylamino)methyl)-N-(quinolin-6-yl)benzamide]	10 to 30 µM	8.09 ± 0.57 µM	6.82 ± 0.35 µM	10 to 30 µM	
O=C(Nc1cccc2cccnc12)c1ccc(CNC2=C(Cl)C(=O)c3ccccc3C2=O)cc1 [MPT0L109, 4-((3-chloro-1,4-dioxo-1,4-dihydronaphthalen-2-ylamino)methyl)-N-(quinolin-8-yl)benzamide]	10 to 30 µM	6.43 ± 2.44 µM	10 to 30 µM	10 to 30 µM	
O=C(Nc1cnc2ccccc2c1)c1ccc(CNC2=C(Cl)C(=O)c3ccccc3C2=O)cc1 [MPT0L110, 4-((3-chloro-1,4-dioxo-1,4-dihydronaphthalen-2-ylamino)methyl)-N-(quinolin-3-yl)benzamide]	10 to 30 µM	7.93 ± 1.14 µM	10 to 30 µM	10 to 30 µM	
O=C(Nc1cccc2ncccc12)c1ccc(CNC2=C(Cl)C(=O)c3ccccc3C2=O)cc1 [MPT0L111, 4-((3-chloro-1,4-dioxo-1,4-dihydronaphthalen-2-ylamino)methyl)-N-(quinolin-5-yl)benzamide]	10 to 30 µM	2.23 ± 0.27 µM	10 to 30 µM	10 to 30 µM	
Cc1cc(NC(=O)c2ccc(CNC3=C(Cl)C(=O)c4ccccc4C3=O)cc2)c2ccccc2n1 [MPT0L112, 4-((3-chloro-1,4-dioxo-1,4-dihydronaphthalen-2-ylamino)methyl)-N-(2-methylquinolin-4-yl)benzamide]	10 to 30 µM	2.68 ± 0.03 µM	10 to 30 µM	8.12 ± 1.32 µM	
